# The supplement of paper PMC9663587
# Assays:
# ABT-737 = compound: CN(C)CC[C@H](CSc1ccccc1)Nc1ccc(S(=O)(=O)NC(=O)c2ccc(N3CCN(Cc4ccccc4-c4ccc(Cl)cc4)CC3)cc2)cc1[N+](=O)[O-] [ABT-737]
# Saracatinib/AZD0530 = compound: CN1CCN(CCOc2cc(OC3CCOCC3)c3c(Nc4c(Cl)ccc5c4OCO5)ncnc3c2)CC1 [Saracatinib/AZD0530]
# Flavopiridol [1] = compound: T1, CN1CC[C@H](c2c(O)cc(O)c3c(=O)cc(-c4ccccc4Cl)oc23)[C@H](O)C1 [Flavopiridol]
# Taselisib/GDC0032 = compound: Cc1nc(-c2cn3c(n2)-c2ccc(-c4cnn(C(C)(C)C(N)=O)c4)cc2OCC3)n(C(C)C)n1 [Taselisib/GDC0032]
# [2] = compound: CO[C@@H](C)Cn1c(=O)n(C)c2cnc3ccc(-c4cncc(C(C)(C)O)c4)cc3c21
# BSJ-03-123 = compound: CC(=O)c1c(C)c2cnc(Nc3ccc(N4CCN(CCOCCOCCOCCNC(=O)COc5cccc6c5C(=O)N(C5CCC(=O)NC5=O)C6=O)CC4)cn3)nc2n(C2CCCC2)c1=O [BSJ-03-123]; assay: GR value, 72 h; higher = faster growth (1 = untreated, <0 = killing);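 also: breast cancer and non-malignant breast epithelial lines, nine half-log doses, viable cells counted by Hoechst and LIVE/DEAD dye imaging versus time-zero plates and DMSO controls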
# [3] = compound: CC(=O)c1c(C)c2cnc(Nc3ccc(N4CCNCC4)cn3)nc2n(C2CCCC2)c1=O; assay: as above
# [4] = compound: CCc1cnn2c(NCc3ccc[n+]([O-])c3)cc(N3CCCC[C@H]3CCO)nc12; assay: as above
# [5] = compound: CCN1CCN(Cc2ccc(Nc3ncc(F)c(-c4cc(F)c5nc(C)n(C(C)C)c5c4)n3)nc2)CC1; assay: as above
# Flavopiridol [6] = compound: T1, Flavopiridol; assay: as above
# THZ1 = compound: CN(C)C/C=C/C(=O)Nc1ccc(C(=O)Nc2cccc(Nc3ncc(Cl)c(-c4c[nH]c5ccccc45)n3)c2)cc1 [THZ1]; assay: as above
# Neratinib/HKI272 = compound: CCOc1cc2ncc(C#N)c(Nc3ccc(OCc4ccccn4)c(Cl)c3)c2cc1NC(=O)/C=C/CN(C)C [Neratinib/HKI272]; assay: as above
# YKL-5-124 = compound: C=CC(=O)Nc1ccc(C(=O)Nc2[nH]nc3c2CN(C(=O)N[C@H](CN(C)C)c2ccccc2)C3(C)C)cc1 [YKL-5-124]; assay: as above
# LEE011/Ribociclib = compound: CN(C)C(=O)c1cc2cnc(Nc3ccc(N4CCNCC4)cn3)nc2n1C1CCCC1 [LEE011/Ribociclib]; assay: as above
# THZ531 = compound: CN(C)C/C=C/C(=O)Nc1ccc(C(=O)N2CCC[C@@H](Nc3ncc(Cl)c(-c4c[nH]c5ccccc45)n3)C2)cc1 [THZ531]; assay: as above
# 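For GR50, 72 h in this document: breast cancer and non-malignant breast epithelial cell lines, Deep Dye Drop or Dye Drop imaging, nine half-log doses, GR normalized to time-zero plates and DMSO-only controls.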
cell line,measurement,setting,value
HS578T,"GR50, 72 h",ABT-737,> 10 µM
same,"GR50, 72 h",Saracatinib/AZD0530,4.04 µM
same,"GR50, 72 h",Flavopiridol [1],0.148 µM
same,"GR50, 72 h",Taselisib/GDC0032,0.575 µM
same,"GR50, 72 h",[2],< 0.001 µM
same,GR value,BSJ-03-123; 0.001 µM,0.971 GR
same,GR value,BSJ-03-123; 0.003162 µM,0.905 GR
same,GR value,BSJ-03-123; 0.01 µM,0.883 GR
same,GR value,BSJ-03-123; 0.03162 µM,0.844 GR
same,GR value,BSJ-03-123; 0.1 µM,0.79 GR
same,GR value,BSJ-03-123; 0.3162 µM,0.74 GR
same,GR value,BSJ-03-123; 1 µM,0.626 GR
same,GR value,BSJ-03-123; 3.162 µM,0.521 GR
same,GR value,BSJ-03-123; 10 µM,-0.29 GR
same,GR value,[3]; 0.0003162 µM,1.07 GR
same,GR value,[3]; 0.001 µM,0.988 GR
same,GR value,[3]; 0.003162 µM,0.928 GR
same,GR value,[3]; 0.01 µM,0.764 GR
same,GR value,[3]; 0.03162 µM,0.666 GR
same,GR value,[3]; 0.1 µM,0.569 GR
same,GR value,[3]; 0.3162 µM,0.481 GR
same,GR value,[3]; 1 µM,0.423 GR
same,GR value,[3]; 3.162 µM,0.302 GR
same,GR value,[4]; 0.0001 µM,0.955 GR
same,GR value,[4]; 0.0003162 µM,1.04 GR
same,GR value,[4]; 0.001 µM,0.986 GR
same,GR value,[4]; 0.003162 µM,1.02 GR
same,GR value,[4]; 0.01 µM,0.313 GR
same,GR value,[4]; 0.03162 µM,-0.21 GR
same,GR value,[4]; 0.1 µM,-0.191 GR
same,GR value,[4]; 0.3162 µM,-0.216 GR
same,GR value,[4]; 1 µM,-0.237 GR
same,GR value,[5]; 0.001 µM,0.969 GR
same,GR value,[5]; 0.003162 µM,0.776 GR
same,GR value,[5]; 0.01 µM,0.699 GR
same,GR value,[5]; 0.03162 µM,0.521 GR
same,GR value,[5]; 0.1 µM,0.442 GR
same,GR value,[5]; 0.3162 µM,0.268 GR
same,GR value,[5]; 1 µM,0.217 GR
same,GR value,[5]; 3.162 µM,-0.238 GR
same,GR value,[5]; 10 µM,-0.576 GR
same,GR value,Flavopiridol [6]; 0.0001 µM,1 GR
same,GR value,Flavopiridol [6]; 0.0003162 µM,1.01 GR
same,GR value,Flavopiridol [6]; 0.001 µM,0.977 GR
same,GR value,Flavopiridol [6]; 0.003162 µM,0.969 GR
same,GR value,Flavopiridol [6]; 0.01 µM,0.95 GR
same,GR value,Flavopiridol [6]; 0.03162 µM,0.923 GR
same,GR value,Flavopiridol [6]; 0.1 µM,0.711 GR
same,GR value,Flavopiridol [6]; 0.3162 µM,0.107 GR
same,GR value,Flavopiridol [6]; 1 µM,-0.265 GR
same,GR value,THZ1; 0.0001 µM,0.977 GR
same,GR value,THZ1; 0.0003162 µM,1.03 GR
same,GR value,THZ1; 0.001 µM,0.99 GR
same,GR value,THZ1; 0.003162 µM,1.03 GR
same,GR value,THZ1; 0.01 µM,0.784 GR
same,GR value,THZ1; 0.03162 µM,0.125 GR
same,GR value,THZ1; 0.1 µM,-0.199 GR
same,GR value,THZ1; 0.3162 µM,-0.251 GR
same,GR value,THZ1; 1 µM,-0.371 GR
same,GR value,Neratinib/HKI272; 0.0003162 µM,1.06 GR
same,GR value,Neratinib/HKI272; 0.001 µM,1 GR
same,GR value,Neratinib/HKI272; 0.003162 µM,1.05 GR
same,GR value,Neratinib/HKI272; 0.01 µM,0.98 GR
same,GR value,Neratinib/HKI272; 0.03162 µM,1 GR
same,GR value,Neratinib/HKI272; 0.1 µM,0.888 GR
same,GR value,Neratinib/HKI272; 0.3162 µM,0.613 GR
same,GR value,Neratinib/HKI272; 1 µM,0.427 GR
same,GR value,Neratinib/HKI272; 3.162 µM,-0.155 GR
same,GR value,YKL-5-124; 0.001 µM,0.455 GR
same,GR value,YKL-5-124; 0.003162 µM,0.364 GR
same,GR value,YKL-5-124; 0.01 µM,0.311 GR
same,GR value,YKL-5-124; 0.03162 µM,0.239 GR
same,GR value,YKL-5-124; 0.1 µM,0.242 GR
same,GR value,YKL-5-124; 0.3162 µM,0.195 GR
same,GR value,YKL-5-124; 1 µM,0.167 GR
same,GR value,YKL-5-124; 3.162 µM,0.0237 GR
same,GR value,YKL-5-124; 10 µM,-0.462 GR
same,GR value,LEE011/Ribociclib; 0.001 µM,0.825 GR
same,GR value,LEE011/Ribociclib; 0.003162 µM,0.861 GR
same,GR value,LEE011/Ribociclib; 0.01 µM,0.73 GR
same,GR value,LEE011/Ribociclib; 0.03162 µM,0.672 GR
same,GR value,LEE011/Ribociclib; 0.1 µM,0.63 GR
same,GR value,LEE011/Ribociclib; 0.3162 µM,0.621 GR
same,GR value,LEE011/Ribociclib; 1 µM,0.591 GR
same,GR value,LEE011/Ribociclib; 3.162 µM,0.513 GR
same,GR value,LEE011/Ribociclib; 10 µM,0.373 GR
same,GR value,THZ531; 0.0001 µM,1.04 GR
same,GR value,THZ531; 0.0003162 µM,0.978 GR
same,GR value,THZ531; 0.001 µM,1 GR
same,GR value,THZ531; 0.003162 µM,1.03 GR
same,GR value,THZ531; 0.01 µM,0.993 GR
same,GR value,THZ531; 0.03162 µM,0.798 GR
same,GR value,THZ531; 0.1 µM,0.051 GR
same,GR value,THZ531; 0.3162 µM,-0.213 GR
same,GR value,THZ531; 1 µM,-0.252 GR
